Literature values in US20210038510A1, “FORMULATIONS OF KINASE INHIBITORS AND PROSTANOIDS” (PULMOKINE, INC., priority 2018, published 2021).

Key:
[1] = test system: PDGFRβ isoform versus PDGFRα isoform
[2] = test system: patients with advanced PAH
[3] = test system: rat monocrotaline model of PAH

Q: With `Cc1ccc(NC(=O)c2ccc(CN3CCN(C)CC3)cc2)cc1Nc1nccc(-c2cccnc2)n1` [Imatinib, imatinib] as the compound, how does the “Potency against the PDGFRβ isoform compared with the PDGFRα isoform” value [1] read?
A: less potent

Q: What about the Cardiopulmonary hemodynamics [2] of the same compound?
A: improves cardiopulmonary hemodynamics

Q: And the “Right ventricular systolic pressure (RVSP)” value [3]?
A: decreases

Q: And the Survival [3]?
A: improves survival
